Laboratory results from article PMC4054954 (Brain research, 2011).
Entries after “also recorded” stand apart in the source; their conditions may differ.

System: HT-22 cells
Assay: HT-22 cell-based glutamate cytoprotection assay
Design: species or system murine
Conditions: for cytoprotection / neuroprotection of HT-22 cells (in words): glutamate-induced oxidative stress cell death

Structure (SMILES) | cytoprotection / neuroprotection of HT-22 cells (in words) | EC50 (Mus musculus, HT-22, read-out: cytoprotective EC50) [µM]
O=C(OCCN1CCOCC1)C1(c2ccccc2)CCCCC1 [PRE-084] | not cytoprotective | 
CC(C)=CCN1CC[C@]2(C)c3cc(O)ccc3C[C@H]1[C@H]2C [(+)-pentazocine] | not to be neuroprotective; also recorded: not cytoprotective | > 4
O=C(CCCN1CCC(O)(c2ccc(Cl)cc2)CC1)c1ccc(F)cc1 [haloperidol] | potent neuroprotective agent; also recorded: protective | 
